Assay results reported in DBAASP.
Converted amounts (≈) assume the structure as drawn. One block for each compound: values may come before it.

Columns and labels:
Experiment in all cases: ≥ marks a high value that may be exact or a test limit, other limits are often not marked, values filed in µg/mL are converted to µM
Ramulariopsis gossypii = tested on: Ramulariopsis gossypii
[1] = tested on: Pseudomonas aeruginosa ATCC 27853
[2] = tested on: Candida albicans ATCC 90028
[3] = tested on: Bacillus subtilis ATCC 23857
[4] = tested on: Cryptococcus neoformans ATCC 28957
[5] = tested on: Escherichia coli ATCC 25922
[6] = tested on: Xanthomonas campestris pv. citri
[7] = tested on: Candida parapsilosis CBS 604
[8] = tested on: Candida albicans ATCC 10231
[9] = tested on: Saccharomyces cerevisiae SZMC 0644
Candida krusei CBS 573 = tested on: Candida krusei CBS 573
[10] = tested on: Klebsiella pneumoniae ATCC BAA-2146
[11] = tested on: Klebsiella pneumoniae ATCC 13883
Klebsiella pneumoniae = tested on: Klebsiella pneumoniae
[12] = tested on: Acinetobacter baumannii ATCC 19606
[13] = tested on: Klebsiella pneumoniae ATCC 700603
[14] = tested on: Cryptococcus neoformans ATCC 208821
[15] = tested on: Bacillus subtilis ATCC 6051
[16] = tested on: Staphylococcus aureus ATCC 43300
Pseudomonas aeruginosa = tested on: Pseudomonas aeruginosa
Acinetobacter baumannii = tested on: Acinetobacter baumannii
[17] = tested on: Candida albicans ATCC 14053
[18] = tested on: Micrococcus luteus ATCC 49732
[19] = tested on: Staphylococcus aureus ATCC 12600
[20] = tested on: Escherichia coli ATCC 11775
[21] = tested on: Staphylococcus epidermidis
[22] = tested on: Escherichia coli K12 MG1655
[23] = tested on: Salmonella enterica subsp. enterica serovar Typhimurium ATCC 14028
Escherichia coli UTI89 = tested on: Escherichia coli UTI89
Aspergillus niger = tested on: Aspergillus niger
Penicillium expansum = tested on: Penicillium expansum

MIC (Ramulariopsis gossypii): ≥ 64 µM
MIC [1]: 128 µM (≈ 295 µg/mL)
MIC [2]: ≥ 64 µM
MIC [3]: 16 µM (≈ 36.9 µg/mL)
MIC [4]: ≥ 64 µM
MIC [5]: 26.7 µM (≈ 61.5 µg/mL)
MIC [6]: ≥ 128 µM
SMILES: CC[C@H](C)[C@H](NC(=O)[C@H](Cc1ccccc1)NC(=O)[C@@H](NC(=O)[C@H](CCC(N)=O)NC(=O)[C@H](Cc1ccc(O)cc1)NC(=O)[C@H](CCCN=C(N)N)NC(=O)[C@@H](NC(=O)[C@H](CC(C)C)NC(=O)[C@H](CCCCN)NC(=O)[C@H](CCC(N)=O)NC(=O)[C@H](CC(C)C)NC(=O)[C@H](CCC(=O)O)NC(=O)[C@H](CCCCN)NC(=O)[C@H](Cc1ccccc1)NC(=O)[C@H](CC(C)C)NC(=O)[C@H](CC(C)C)NC(=O)CN)[C@@H](C)CC)[C@@H](C)CC)C(=O)NCC(=O)N[C@@H](CCCCN)C(N)=O [GLLFKELQKLIRYQIFIGK]

MIC [7]: ≥ 32 µM
MIC [8]: > 32 µM
MIC [9]: ≥ 32 µM
MIC (Candida krusei CBS 573): ≥ 32 µM
SMILES: CC[C@H](C)[C@H](NC(=O)[C@@H]1CSSC[C@H](NC(=O)[C@H](CCCCN)NC(=O)CNC(=O)[C@H](CO)NC(=O)[C@@H](NC(=O)[C@@H](NC(=O)[C@H](CCCCN)NC(=O)[C@H](CO)NC(=O)[C@H](CCCCN)NC(=O)[C@H](CC(=O)O)NC(=O)[C@H](CO)NC(=O)[C@@H]2CCCN2C(=O)CNC(=O)[C@H](CO)NC(=O)[C@H](Cc2cnc[nH]2)NC(=O)[C@H](Cc2ccc(O)cc2)NC(=O)[C@@H](N)CCCCN)C(C)C)[C@@H](C)CC)C(=O)N[C@@H](CCC(=O)O)C(=O)N[C@@H](Cc2c[nH]c3ccccc23)C(=O)N[C@@H](CCC(N)=O)C(=O)NCC(=O)NCC(=O)N[C@@H](CCC(N)=O)C(=O)N[C@@H](CC(C)C)C(=O)N[C@@H](CC(N)=O)C(=O)N1)C(=O)N[C@@H](C)C(=O)N[C@H](C(=O)O)[C@@H](C)O [KYHSGPSDKSKVISGKCEWQGGQLNCIAT]

MIC [7]: ≥ 76.8 µM
MIC [8]: > 76.8 µM
MIC [9]: ≥ 76.8 µM
MIC (Candida krusei CBS 573): ≥ 76.8 µM
SMILES: CC[C@H](C)[C@H](N)C(=O)N[C@@H](C)C(=O)N[C@H](C(=O)N[C@@H](CO)C(=O)N1CCC[C@H]1C(=O)N[C@@H](Cc1ccc(O)cc1)C(=O)N[C@@H](Cc1ccc(O)cc1)C(=O)N[C@@H](C)C(=O)N[C@H]1CSSC[C@@H](C(=O)N2CCC[C@H]2C(=O)O)NC(=O)[C@H](CC(N)=O)NC1=O)[C@@H](C)O [IATSPYYACNCP]

MIC [10]: 3.6 µM (≈ 7.99 µg/mL)
MIC [11]: 1.8 µM (≈ 4 µg/mL)
MIC (Klebsiella pneumoniae): 7.21 µM (≈ 16 µg/mL)
MIC [12]: 0.225 µM (≈ 0.5 µg/mL)
MIC [13]: 7.21 µM (≈ 16 µg/mL)
MIC [1]: 3.6 µM (≈ 7.99 µg/mL)
MIC [14]: 0.225 µM (≈ 0.5 µg/mL)
MIC [2]: 0.901 µM (≈ 2 µg/mL)
MIC [15]: 0.0563 µM (≈ 0.125 µg/mL)
MIC [16]: 7.21 µM (≈ 16 µg/mL)
MIC (Pseudomonas aeruginosa): 7.21 µM (≈ 16 µg/mL)
MIC [5]: 0.45 µM (≈ 0.999 µg/mL)
MIC (Acinetobacter baumannii): 0.45 µM (≈ 0.999 µg/mL)
SMILES: CC[C@H](C)[C@@H]1NC(=O)CNC(=O)[C@H](CCCN=C(N)N)NC(=O)[C@H](Cc2ccc(O)cc2)NC(=O)[C@H](CO)NC(=O)[C@H](C(C)C)NC(=O)[C@H](CCCN=C(N)N)NC(=O)[C@H](Cc2ccccc2)NC(=O)[C@@H](NC(=O)[C@H](Cc2c[nH]c3ccccc23)NC(=O)[C@@H](N)CCCCN)CSSC[C@@H](C(=O)N[C@@H](CCCN=C(N)N)C(=O)O)NC(=O)[C@H](CCCN=C(N)N)NC(=O)[C@H](CCCN=C(N)N)NC(=O)[C@H](Cc2ccc(O)cc2)NC(=O)[C@H](C)NC1=O [KWCFRVSYRGIAYRRCR]

MIC [17]: ≥ 321 µM
MIC [18]: ≥ 963 µM
MIC [19]: ≥ 107 µM
MIC [20]: ≥ 107 µM
SMILES: CC(C)[C@H](NC(=O)[C@H](C)NC(=O)[C@@H](NC(=O)CNC(=O)[C@H](C)N)[C@@H](C)O)C(=O)N[C@@H](Cc1ccccc1)C(=O)N[C@@H](CCCCN)C(=O)O [AGTAVFK]

MIC [10]: 0.115 µM (≈ 0.25 µg/mL)
MIC [11]: 0.0572 µM (≈ 0.125 µg/mL)
MIC (Klebsiella pneumoniae): 1.83 µM (≈ 3.99 µg/mL)
MIC [12]: 0.0572 µM (≈ 0.125 µg/mL)
MIC [13]: 0.115 µM (≈ 0.25 µg/mL)
MIC [1]: 0.115 µM (≈ 0.25 µg/mL)
MIC [14]: 0.115 µM (≈ 0.25 µg/mL)
MIC [2]: 1.83 µM (≈ 3.99 µg/mL)
MIC [15]: 0.0069 µM (≈ 0.015 µg/mL)
MIC [16]: 0.229 µM (≈ 0.499 µg/mL)
MIC (Pseudomonas aeruginosa): 0.229 µM (≈ 0.499 µg/mL)
MIC [5]: 0.0069 µM (≈ 0.015 µg/mL)
MIC (Acinetobacter baumannii): 0.0572 µM (≈ 0.125 µg/mL)
SMILES: CC[C@H](C)[C@@H]1NC(=O)CNC(=O)[C@H](CCCN=C(N)N)NC(=O)[C@H](Cc2ccc(O)cc2)NC(=O)[C@@H]2CSSC[C@H](NC1=O)C(=O)N[C@@H](Cc1ccc(O)cc1)C(=O)N[C@@H](CCCN=C(N)N)C(=O)N[C@@H](CCCN=C(N)N)C(=O)N[C@H](C(=O)N[C@@H](C)C(=O)O)CSSC[C@H](NC(=O)[C@H](Cc1c[nH]c3ccccc13)NC(=O)[C@@H](N)CCCCN)C(=O)N[C@@H](Cc1ccccc1)C(=O)N[C@@H](CCCN=C(N)N)C(=O)N[C@@H](C(C)C)C(=O)N2 [KWCFRVCYRGICYRRCA]

MIC [21]: 29 µM (≈ 53.6 µg/mL)
MIC [22]: 6.25 µM (≈ 11.6 µg/mL)
MIC [23]: 50 µM (≈ 92.5 µg/mL)
MIC (Escherichia coli UTI89): 6.25 µM (≈ 11.6 µg/mL)
SMILES: CC[C@H](C)[C@H](NC(=O)[C@H](CCCCN)NC(=O)[C@H](CCC(N)=O)NC(=O)[C@H](Cc1c[nH]c2ccccc12)NC(=O)[C@@H](NC(=O)[C@H](CCCCN)NC(=O)[C@@H](N)CCCCN)[C@@H](C)CC)C(=O)N[C@@H](CCCCN)C(=O)N[C@@H](CC(N)=O)C(=O)N[C@@H](Cc1ccccc1)C(=O)N[C@@H](Cc1ccccc1)C(=O)N[C@@H](CCC(N)=O)C(=O)N[C@@H](CCCCN)C(=O)N[C@@H](CC(C)C)C(=O)O [KKIWQKIKNFFQKL]

MIC [21]: 7.5 µM (≈ 14.2 µg/mL)
MIC [22]: ≥ 50 µM
MIC [23]: 50 µM (≈ 94.6 µg/mL)
MIC (Escherichia coli UTI89): ≥ 50 µM
SMILES: CC[C@H](C)[C@H](NC(=O)[C@H](CCCCN)NC(=O)[C@H](CCC(N)=O)NC(=O)[C@H](Cc1c[nH]c2ccccc12)NC(=O)[C@@H](NC(=O)[C@H](CCCCN)NC(=O)[C@@H](N)CCCCN)[C@@H](C)CC)C(=O)N[C@@H](CCCCN)C(=O)N[C@@H](CCCN=C(N)N)C(=O)N[C@@H](Cc1ccccc1)C(=O)N[C@@H](Cc1ccccc1)C(=O)N[C@@H](CCC(N)=O)C(=O)N[C@@H](CCCCN)C(=O)N[C@@H](CC(C)C)C(=O)O [KKIWQKIKRFFQKL]

MIC (Aspergillus niger): 6.44 µM (≈ 12.5 µg/mL)
MIC (Penicillium expansum): 6.44 µM (≈ 12.5 µg/mL)
SMILES: CC(C)C[C@H](NC(=O)[C@H](Cc1ccccc1)NC(=O)[C@H](CCCN=C(N)N)NC(=O)[C@H](CCCN=C(N)N)NC(=O)[C@H](C)NC(=O)[C@H](Cc1c[nH]c2ccccc12)NC(=O)[C@H](Cc1c[nH]c2ccccc12)NC(=O)[C@H](C)NC(=O)[C@H](CCCN=C(N)N)NC(=O)[C@H](Cc1ccccc1)NC(=O)[C@H](Cc1ccccc1)NC(=O)[C@H](CCCCN)NC(=O)[C@@H](N)CCCCN)C(=O)N[C@@H](CCCCN)C(N)=O [KKFFRAWWARRFLK]
